Assay results taken from US11000033B2, “Ketone or oxime compound, and herbicide” (NISSAN CHEMICAL CORPORATION, priority 2014, dated 2021).

What was measured:
Format in all cases: in vivo
Veronica persica = test: Test Example 5: herbicidal effect by foliage application, plastic box (symbol R); conditions: 320 g/ha, 3 weeks after application
In short: (§1)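 Greenhouse foliar test: seedlings at 14 days, grown 25° C. to 30° C. in sterilized diluvial soil; compound applied as an aqueous dilution of an emulsion; response read 3 weeks after spraying.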

rice plant = test: Test Example 5: effect on crop by foliage application, plastic box (symbol b); conditions: 320 g/ha, 3 weeks after application
In short: (§2)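 Foliage-application test plants come from spot sowing in sterilized diluvial soil under a soil layer of about 1.5 cm, grown at 25° C. to 30° C. in a greenhouse.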

[1] = system: Echinochloa crus-galli var. crus-galli; test: Test Example 3: herbicidal effect by foliage application, Wagner pot (symbol H); conditions: application herbicide amount 320 g/ha
In short: (§3)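 In a shallow-flooded alluvial soil system held at 25–30 °C, plants including rice grew for 14 days and were then sprayed over the foliage with emulsion diluted to a fixed herbicide amount. Visual rating followed at 3 weeks.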

[2] = system: directly sowed rice plant; test: Test Example 3: effect on crop by foliage application, Wagner pot (symbol b); conditions: application herbicide amount 320 g/ha
In short: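 Alluvial soil in a 1/10000-are Wagner pot was flooded to a water depth of 0.1–0.5 cm. Echinochloa crus-galli var. crus-galli, Leptochloa chinensis, Cyperus difformis and rice were sown into it and grown in a greenhouse at 25–30 °C.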

Setaria viridis = test: Test Example 5: herbicidal effect by foliage application, plastic box (symbol G); conditions: 320 g/ha, 3 weeks after application
In short: as §1

[3] = system: Echinochloa crus-galli var. crus-galli; test: Test Example 5: herbicidal effect by foliage application, plastic box (symbol H); conditions: 320 g/ha, 3 weeks after application
In short: as §1

Amaranthus retroflexus = test: Test Example 5: herbicidal effect by foliage application, plastic box (symbol N); conditions: 320 g/ha, 3 weeks after application
In short: as §1

rapeseed = test: Test Example 5: effect on crop by foliage application, plastic box (symbol g); conditions: 320 g/ha, 3 weeks after application
In short: as §2

Leptochloa chinensis = test: Test Example 3: herbicidal effect by foliage application, Wagner pot (symbol D); conditions: application herbicide amount 320 g/ha
In short: as §3

Lolium multiflorum Lam. = test: Test Example 5: herbicidal effect by foliage application, plastic box (symbol K); conditions: 320 g/ha, 3 weeks after application
In short: as §1

Alopecurus myosuroides = test: Test Example 5: herbicidal effect by foliage application, plastic box (symbol J); conditions: 320 g/ha, 3 weeks after application
In short: as §1

corn = test: Test Example 5: effect on crop by foliage application, plastic box (symbol c); conditions: 320 g/ha, 3 weeks after application
In short: as §2

Apera spica-venti = test: Test Example 5: herbicidal effect by foliage application, plastic box (symbol L); conditions: 320 g/ha, 3 weeks after application
In short: as §1

beet = test: Test Example 5: effect on crop by foliage application, plastic box (symbol f); conditions: 320 g/ha, 3 weeks after application
In short: as §2

Galium spurium = test: Test Example 5: herbicidal effect by foliage application, plastic box (symbol Q); conditions: 320 g/ha, 3 weeks after application
From the text: Herbicidal Effect Test by Foliage Application
Sterilized diluvial soil was placed in a plastic box having a length of 21 cm, a width of 13 cm, and a depth of 7 cm. Each of the seeds of Digitaria ciliaris, Setaria viridis, Echinochloa crus-galli var. crus-galli, Avena fatua, Alopecurus myosuroides, Lolium multiflorum Lam., Apera spica-venti, Abutilon theophrasti, Amaranthus retroflexus, Chenopodium album, Stellaria media, Galium spurium, Veronica persica, corn, soybean, rice plant, wheat, beet, and rapeseed was sowed in a spot-like manner and was covered with the soil of a thickness of about 1.5 cm. Thereafter, the plants were grown in the greenhouse of 25° C. to 30° C. After the plants were grown for 14 days, the emulsion agent of the compound of the present invention prepared in accordance with Formulation Example 2 was diluted with water so as to be a predetermined herbicide amount and the diluted emulsion agent was uniformly applied to a foliage part with a small-size spray. 3 weeks later from the herbicide application, the effect to each plant was investigated in accordance with the criteria of Test Example 1.

Stellaria media = test: Test Example 5: herbicidal effect by foliage application, plastic box (symbol P); conditions: 320 g/ha, 3 weeks after application
In short: as §1

soybean = test: Test Example 5: effect on crop by foliage application, plastic box (symbol d); conditions: 320 g/ha, 3 weeks after application
In short: as §2

wheat = test: Test Example 5: effect on crop by foliage application, plastic box (symbol e); conditions: 320 g/ha, 3 weeks after application
In short: as §2

Cyperus difformis = test: Test Example 3: herbicidal effect by foliage application, Wagner pot (symbol E); conditions: application herbicide amount 320 g/ha
In short: as §3

Chenopodium album = test: Test Example 5: herbicidal effect by foliage application, plastic box (symbol O); conditions: 320 g/ha, 3 weeks after application
In short: as §1

Abutilon theophrasti = test: Test Example 5: herbicidal effect by foliage application, plastic box (symbol M); conditions: 320 g/ha, 3 weeks after application
In short: as §1

Digitaria ciliaris = test: Test Example 5: herbicidal effect by foliage application, plastic box (symbol F); conditions: 320 g/ha, 3 weeks after application
In short: as §1

Avena fatua = test: Test Example 5: herbicidal effect by foliage application, plastic box (symbol I); conditions: 320 g/ha, 3 weeks after application
In short: as §1

SMILES: CCOC(=O)C(C(=O)C(C)C)C1CC(O)=C(c2c(C)cc(Br)cc2C)C1=O (mixture of isomers) [10-001]
- R: Veronica persica, herbicidal effect grade (Veronica persica): 0 (Herbicidal ratio of 5% or lower (almost no effect))
- b: directly sowed rice plant, effect on crop grade (rice plant): 2 (Herbicidal ratio of 20% or higher and lower than 40%)
- H (Echinochloa crus-galli var. crus-galli) herbicidal effect grade ([1]; Table 24): 5 (Herbicidal ratio of 90% or more (almost completely withered))
- b (directly sowed rice plant) effect on crop grade ([2]; Table 24): 3 (Herbicidal ratio of 40% or higher and lower than 70%)
- G: Setaria viridis, herbicidal effect grade (Setaria viridis): 2 (Herbicidal ratio of 20% or higher and lower than 40%)
- H: Echinochloa crus-galli var. crus-galli, herbicidal effect grade [3]: 4 (Herbicidal ratio of 70% or higher and lower than 90%)
- N: Amaranthus retroflexus, herbicidal effect grade (Amaranthus retroflexus): 0 (Herbicidal ratio of 5% or lower (almost no effect))
- g: rapeseed, effect on crop grade (rapeseed): 0 (Herbicidal ratio of 5% or lower (almost no effect))
- D (Leptochloa chinensis) herbicidal effect grade (Leptochloa chinensis; Table 24): 4 (Herbicidal ratio of 70% or higher and lower than 90%)
- K: Lolium multiflorum Lam., herbicidal effect grade (Lolium multiflorum Lam.): 3 (Herbicidal ratio of 40% or higher and lower than 70%)
- J: Alopecurus myosuroides, herbicidal effect grade (Alopecurus myosuroides): 1 (Herbicidal ratio of 5% or higher and lower than 20%)
- c: corn, effect on crop grade (corn): 1 (Herbicidal ratio of 5% or higher and lower than 20%)
- L: Apera spica-venti, herbicidal effect grade (Apera spica-venti): 0 (Herbicidal ratio of 5% or lower (almost no effect))
- f: beet, effect on crop grade (beet): 0 (Herbicidal ratio of 5% or lower (almost no effect))
- Q: Galium spurium, herbicidal effect grade (Galium spurium): 0 (Herbicidal ratio of 5% or lower (almost no effect))
- P: Stellaria media, herbicidal effect grade (Stellaria media): 0 (Herbicidal ratio of 5% or lower (almost no effect))
- d: soybean, effect on crop grade (soybean): 0 (Herbicidal ratio of 5% or lower (almost no effect))
- e: wheat, effect on crop grade (wheat): 0 (Herbicidal ratio of 5% or lower (almost no effect))
- E herbicidal effect grade (Cyperus difformis; Table 24): 0 (Herbicidal ratio of 5% or lower (almost no effect))
- O: Chenopodium album, herbicidal effect grade (Chenopodium album): 0 (Herbicidal ratio of 5% or lower (almost no effect))
- M: Abutilon theophrasti, herbicidal effect grade (Abutilon theophrasti): 0 (Herbicidal ratio of 5% or lower (almost no effect))
- F: Digitaria ciliaris, herbicidal effect grade (Digitaria ciliaris): 3 (Herbicidal ratio of 40% or higher and lower than 70%)
- I: Avena fatua, herbicidal effect grade (Avena fatua): 1 (Herbicidal ratio of 5% or higher and lower than 20%)

SMILES: CON=C(C)CC1CC(OC)=C(c2c(C)cc(C=Cc3ccccc3)cc2C)C1=O (stereo not drawn) [6-068]
- R: Veronica persica, herbicidal effect (criteria of Test Example 1) (Veronica persica): 0 (Herbicidal ratio of 5% or lower (almost no effect))
- b: directly sowed rice plant, effect on crop (criteria of Test Example 1) (rice plant): 1 (Herbicidal ratio of 5% or higher and lower than 20%)
- herbicidal effect on H (Echinochloa crus-galli var. crus-galli), grade 0-5 [1]: 0 (Herbicidal ratio of 5% or lower (almost no effect))
- effect on crop b (directly sowed rice plant), grade 0-5 [2]: 0 (Herbicidal ratio of 5% or lower (almost no effect))
- G: Setaria viridis, herbicidal effect (criteria of Test Example 1) (Setaria viridis): 3 (Herbicidal ratio of 40% or higher and lower than 70%)
- H: Echinochloa crus-galli var. crus-galli, herbicidal effect (criteria of Test Example 1) [3]: 3 (Herbicidal ratio of 40% or higher and lower than 70%)
- N: Amaranthus retroflexus, herbicidal effect (criteria of Test Example 1) (Amaranthus retroflexus): 0 (Herbicidal ratio of 5% or lower (almost no effect))
- g: rapeseed, effect on crop (criteria of Test Example 1) (rapeseed): 2 (Herbicidal ratio of 20% or higher and lower than 40%)
- herbicidal effect on D (Leptochloa chinensis), grade 0-5 (Leptochloa chinensis): 2 (Herbicidal ratio of 20% or higher and lower than 40%)
- K: Lolium multiflorum Lam., herbicidal effect (criteria of Test Example 1) (Lolium multiflorum Lam.): 0 (Herbicidal ratio of 5% or lower (almost no effect))
- J: Alopecurus myosuroides, herbicidal effect (criteria of Test Example 1) (Alopecurus myosuroides): 0 (Herbicidal ratio of 5% or lower (almost no effect))
- c: corn, effect on crop (criteria of Test Example 1) (corn): 4 (Herbicidal ratio of 70% or higher and lower than 90%)
- L: Apera spica-venti, herbicidal effect (criteria of Test Example 1) (Apera spica-venti): 0 (Herbicidal ratio of 5% or lower (almost no effect))
- f: beet, effect on crop (criteria of Test Example 1) (beet): 0 (Herbicidal ratio of 5% or lower (almost no effect))
- Q: Galium spurium, herbicidal effect (criteria of Test Example 1) (Galium spurium): 0 (Herbicidal ratio of 5% or lower (almost no effect))
- P: Stellaria media, herbicidal effect (criteria of Test Example 1) (Stellaria media): 2 (Herbicidal ratio of 20% or higher and lower than 40%)
- d: soybean, effect on crop (criteria of Test Example 1) (soybean): 0 (Herbicidal ratio of 5% or lower (almost no effect))
- e: wheat, effect on crop (criteria of Test Example 1) (wheat): 0 (Herbicidal ratio of 5% or lower (almost no effect))
- herbicidal effect on E, grade 0-5 (Cyperus difformis): 0 (Herbicidal ratio of 5% or lower (almost no effect))
- O: Chenopodium album, herbicidal effect (criteria of Test Example 1) (Chenopodium album): 0 (Herbicidal ratio of 5% or lower (almost no effect))
- M: Abutilon theophrasti, herbicidal effect (criteria of Test Example 1) (Abutilon theophrasti): 0 (Herbicidal ratio of 5% or lower (almost no effect))
- F: Digitaria ciliaris, herbicidal effect (criteria of Test Example 1) (Digitaria ciliaris): 0 (Herbicidal ratio of 5% or lower (almost no effect))
- I: Avena fatua, herbicidal effect (criteria of Test Example 1) (Avena fatua): 0 (Herbicidal ratio of 5% or lower (almost no effect))

SMILES: CON=C(C)CC1CC(OC(=O)N(C(C)C)C(C)C)=C(c2c(C)cc(C)cc2C)C1=O (stereo not drawn) [1-158]
- R: Veronica persica, herbicidal effect grade (Veronica persica): 0 (Herbicidal ratio of 5% or lower (almost no effect))
- b: directly sowed rice plant, effect on crop grade (rice plant): 1 (Herbicidal ratio of 5% or higher and lower than 20%)
- herbicidal effect on H (Echinochloa crus-galli var. crus-galli), grade 0-5 [1]: 0 (Herbicidal ratio of 5% or lower (almost no effect))
- effect on crop b (directly sowed rice plant), grade 0-5 [2]: 2 (Herbicidal ratio of 20% or higher and lower than 40%)
- G: Setaria viridis, herbicidal effect grade (Setaria viridis): 0 (Herbicidal ratio of 5% or lower (almost no effect))
- H: Echinochloa crus-galli var. crus-galli, herbicidal effect grade [3]: 1 (Herbicidal ratio of 5% or higher and lower than 20%)
- N: Amaranthus retroflexus, herbicidal effect grade (Amaranthus retroflexus): 0 (Herbicidal ratio of 5% or lower (almost no effect))
- g: rapeseed, effect on crop grade (rapeseed): 2 (Herbicidal ratio of 20% or higher and lower than 40%)
- herbicidal effect on D (Leptochloa chinensis), grade 0-5 (Leptochloa chinensis): 2 (Herbicidal ratio of 20% or higher and lower than 40%)
- K: Lolium multiflorum Lam., herbicidal effect grade (Lolium multiflorum Lam.): 4 (Herbicidal ratio of 70% or higher and lower than 90%)
- J: Alopecurus myosuroides, herbicidal effect grade (Alopecurus myosuroides): 1 (Herbicidal ratio of 5% or higher and lower than 20%)
- c: corn, effect on crop grade (corn): 0 (Herbicidal ratio of 5% or lower (almost no effect))
- L: Apera spica-venti, herbicidal effect grade (Apera spica-venti): 0 (Herbicidal ratio of 5% or lower (almost no effect))
- f: beet, effect on crop grade (beet): 0 (Herbicidal ratio of 5% or lower (almost no effect))
- Q: Galium spurium, herbicidal effect grade (Galium spurium): 0 (Herbicidal ratio of 5% or lower (almost no effect))
- P: Stellaria media, herbicidal effect grade (Stellaria media): 0 (Herbicidal ratio of 5% or lower (almost no effect))
- d: soybean, effect on crop grade (soybean): 0 (Herbicidal ratio of 5% or lower (almost no effect))
- e: wheat, effect on crop grade (wheat): 0 (Herbicidal ratio of 5% or lower (almost no effect))
- herbicidal effect on E, grade 0-5 (Cyperus difformis): 0 (Herbicidal ratio of 5% or lower (almost no effect))
- O: Chenopodium album, herbicidal effect grade (Chenopodium album): 0 (Herbicidal ratio of 5% or lower (almost no effect))
- M: Abutilon theophrasti, herbicidal effect grade (Abutilon theophrasti): 0 (Herbicidal ratio of 5% or lower (almost no effect))
- F: Digitaria ciliaris, herbicidal effect grade (Digitaria ciliaris): 0 (Herbicidal ratio of 5% or lower (almost no effect))
- I: Avena fatua, herbicidal effect grade (Avena fatua): 3 (Herbicidal ratio of 40% or higher and lower than 70%)
